In patent US6545151B2, “Pentacyclic compound” (Daiichi Pharmaceutical Co., Ltd., priority 1995, dated 2003):
In brackets after ≈: the same amount, converted by molar mass.

Assays:
P388 = assay: MTT cell proliferation test, P388; assay type: cell-based; settings: P388 tumor cell line, cultured for 3 days, absorbance at 540 nm
Method: (§1) Cells of each of three tumor cell lines, P388, PC-6 and PC-12, were inoculated into a 96 well microplate in an inoculum size of 5.0×10^2 cells/150 μl/well (P388), 5.0×10^3 cells/150 μl/well (PC-6) or 1.0×10^3 cells/150 μl/well (PC-12), and 50 μl/well of each sample was added to the plate 2 hours thereafter in the case of P388 or 24 hours thereafter in the case of the other two. Thereafter, the cells were cultured for 3 days and then 5 mg/ml solution of MTT [3-(4,5-dimethylthiazol-2-yl)-2,5-diphenyl-2H-tetrazolium bromide] was dispensed in 20 μl/well portions into wells of the microplate. Four hours thereafter, the culture medium was removed, 150 μl of dimethyl sulfoxide was added to each well and then absorbance at 540 nm was measured. The antitumor effect is shown as GI50 value (ng/ml) of each drug which decreases cell proliferation in each drug-added group to 50% of that in the control group.

PC-12 = assay: MTT cell proliferation test, PC-12; assay type: cell-based; settings: PC-12 tumor cell line, cultured for 3 days, absorbance at 540 nm
Method: as §1

PC-6 = assay: MTT cell proliferation test, PC-6; assay type: cell-based; settings: PC-6 tumor cell line, cultured for 3 days, absorbance at 540 nm
Method: as §1

[1] = system: digestive organ cancers, especially large bowel cancers; settings: clinical tests; cited from earlier work

Row | Molecule | GI50 value (P388) | GI50 value (PC-12) | GI50 value (PC-6) | efficacy on digestive organ cancers, especially large bowel cancers [1]
1 | 7α,9β-4-O-Butanoyl-13-O-[(2R,3R)-3-(tert-butoxycarbonylamino)-3-(2-furyl)-2-hydroxypropionyl]-7-deoxy-4,10-dideacetyl-9-dihydro-7-fluoro-9,10-O-(2-morpholinoethylidene)baccatin III [Inventive Example 81] | 0.0048 ng/mL | 0.050 ng/mL | 0.0604 ng/mL | –
2 | 9β-4-O-Butanoyl-13-O-[(2R,3R)-3-(tert-butoxycarbonylamino)-3-(2-furyl)-2-hydroxypropionyl]-4,10-dideacetyl-9-dihydro-9,10-O-(2-morpholinoethylidene)baccatin III [Inventive Example 22] | 0.0193 ng/mL | 0.181 ng/mL | 0.187 ng/mL | –
3 | 9β-13-O-[3-(tert-Butoxycarbonylamino)-2-hydroxy-2-methyl-3-(4-pyridyl)propionyl]-4,10-dideacetyl-9-dihydro-4-O-ethoxycarbonyl-9,10-O-isopropylidenebaccatin III [Inventive Example 101] | 0.0301 ng/mL | 0.125 ng/mL | 0.409 ng/mL | –
4 | 9β-13-O-[3-(tert-Butoxycarbonylamino)-2-hydroxy-2-methyl-3-(4-pyridyl)propionyl]-4,10-dideacetyl-9-dihydro-9,10-O-isopropylidene-4-O-propionylbaccatin III [Inventive Example 90] | 0.0519 ng/mL | 0.0943 ng/mL | 0.209 ng/mL | –
5 | 9β-13-O-[3-(tert-Butoxycarbonylamino)-2-hydroxy-2-methyl-3-(4-pyridyl)propionyl]-4-O-cyclopropanecarbonyl-4,10-dideacetyl-7-deoxy-9-dihydro-9,10-O-isopropylidenebaccatin III [Inventive Example 65] | 0.00509 ng/mL | 0.0684 ng/mL | 0.278 ng/mL | –
6 | 9β-13-O-[3-(tert-Butoxycarbonylamino)-2-hydroxy-2-methyl-3-(4-pyridyl)propionyl]-4-O-cyclopropanecarbonyl-4,10-dideacetyl-9-dihydro-9,10-O-isopropylidenebaccatin III [Inventive Example 60] | 0.0129 ng/mL | 0.0698 ng/mL | 0.395 ng/mL | –
7 | 9β-13-O-[3-(tert-Butoxycarbonylamino)-2-hydroxy-2-methyl-3-(4-pyridyl)propionyl]-4-O-cyclopropanecarbonyl-7-deoxy-4,10-dideacetyl-6,7-didehydro-9-dihydro-9,10-O-isopropylidenebaccatin III [Inventive Example 121] | 0.00173 ng/mL | 0.0498 ng/mL | 0.803 ng/mL | –
8 | 9β-13-O-[3-(tert-Butoxycarbonylamino)-2-hydroxy-2-methyl-3-(4-pyridyl)propionyl]-10-deacetyl-7-deoxy-9-dihydro-9,10-O-isopropylidenebaccatin III [Inventive Example 95] | 0.0034 ng/mL | 0.0121 ng/mL | 0.0992 ng/mL | –
9 | 9β-13-O-[3-(tert-Butoxycarbonylamino)-3-(2-furyl)-2-hydroxy-2-methylpropionyl]-4-O-cyclopropanecarbonyl-4,10-dideacetyl-9-dihydro-9,10-O-(2-morpholinoethylidene)baccatin III [Inventive Example 57] | 0.0135 ng/mL | 0.0739 ng/mL | 0.734 ng/mL | –
10 | 9β-13-O-[(2R,3R)-3-(tert-Butoxycarbonylamino)-2-hydroxy-3-(2-thienyl)propionyl]-10-deacetyl-7-deoxy-9-dihydro-9,10-O-(2-morpholinoethylidene)baccatin III [Inventive Example 98] | 0.0126 ng/mL | 0.022 ng/mL | 0.0696 ng/mL | –
11 | 9β-13-O-[(2R,3R)-3-(tert-Butoxycarbonylamino)-3-(2-furyl)-2-hydroxypropionyl]-4,10-dideacetyl-9-dihydro-9,10-O-(2-morpholinoethylidene)-4-O-propionylbaccatin III [Inventive Example 25] | 0.0549 ng/mL | 0.234 ng/mL | 1.31 ng/mL | –
12 | 9β-13-O-[(2R,3R)-3-(tert-Butoxycarbonylamino)-3-(2-furyl)-2-hydroxypropionyl]-4-O-cyclopropanecarbonyl-4,10-dideacetyl-9-dihydro-9,10-O-(2-morpholinoethylidene)baccatin III [Inventive Example 51] | 0.00754 ng/mL | 0.0669 ng/mL | 0.354 ng/mL | –
13 | 9β-13-O-[(2R,3R)-3-(tert-Butoxycarbonylamino)-3-(2-furyl)-2-hydroxypropionyl]-4-O-cyclopropanecarbonyl-7-deoxy-4,10-dideacetyl-6,7-didehydro-9-dihydro-9,10-O-(2-morpholinoethylidene)baccatin III [Inventive Example 123] | 0.0158 ng/mL | 0.167 ng/mL | 0.366 ng/mL | –
14 | 9β-13-O-[(2R,3R)-3-(tert-Butoxycarbonylamino)-3-(2-furyl)-2-hydroxypropionyl]-10-deacetyl-7-deoxy-9-dihydro-9,10-O-(2-dimethylaminoethylidene)baccatin III [Inventive Example 105] | 0.0475 ng/mL | 0.0643 ng/mL | 0.190 ng/mL | –
15 | 9β-13-O-[(2R,3R)-3-(tert-Butoxycarbonylamino)-3-(2-furyl)-2-hydroxypropionyl]-10-deacetyl-7-deoxy-9-dihydro-9,10-O-(2-morpholinoethylidene)baccatin III [Inventive Example 79] | 0.00689 ng/mL | 0.0264 ng/mL | 0.0673 ng/mL | –
16 | 9β-13-O-[(2R,3S)-3-(tert-Butoxycarbonylamino)-2-hydroxy-3-(2-pyridyl)propionyl]-4-O-cyclopropanecarbonyl-4,10-dideacetyl-9-dihydro-9,10-O-isopropylidenebaccatin III [Inventive Example 69] | 0.0161 ng/mL | 0.0466 ng/mL | 0.0915 ng/mL | –
17 | 9β-13-O-[(2R,3S)-3-(tert-Butoxycarbonylamino)-2-hydroxy-3-(4-pyridyl)propionyl]-4-O-cyclopropanecarbonyl-4,10-dideacetyl-7-deoxy-9-dihydro-9,10-O-isopropylidenebaccatin III [Inventive Example 70] | 0.00137 ng/mL | 0.0184 ng/mL | 0.160 ng/mL | –
18 | 9β-13-O-[(2R,3S)-3-(tert-Butoxycarbonylamino)-2-hydroxy-3-phenylpropionyl]-4-O-cyclopropanecarbonyl-4,10-dideacetyl-9-dihydro-9,10-O-(2-morpholinoethylidene)baccatin III [Inventive Example 53] | 0.0128 ng/mL | 0.0758 ng/mL | 0.874 ng/mL | –
19 | CC(=O)O[C@H]1C(=O)[C@@]2(C)[C@H]([C@H](OC(=O)c3ccccc3)[C@]3(O)C[C@H](OC(=O)[C@H](O)[C@@H](NC(=O)c4ccccc4)c4ccccc4)C(C)=C1C3(C)C)[C@]1(OC(C)=O)CO[C@@H]1C[C@@H]2O [Taxol, reference compound] | 4.36 ng/mL (≈ 5.11 nM) | 82.2 ng/mL (≈ 96.3 nM) | 1.20 ng/mL (≈ 1.41 nM) | low efficacy
20 | CC(=O)O[C@@]12CO[C@@H]1C[C@H](O)[C@@]1(C)C(=O)[C@H](O)C3=C(C)[C@@H](OC(=O)[C@H](O)[C@@H](NC(=O)OC(C)(C)C)c4ccccc4)C[C@@](O)([C@@H](OC(=O)c4ccccc4)[C@H]21)C3(C)C [Taxotere, reference compound] | 1.62 ng/mL (≈ 2.01 nM) | 19.1 ng/mL (≈ 23.6 nM) | 1.16 ng/mL (≈ 1.44 nM) | low efficacy
